Results published in US11845742B2, “Therapeutic compounds and methods to treat infection” (priority 2017, dated 2023).
≈ marks a conversion by molar mass, not a printed value. Read-outs that look alike come from different tables or passages of the source.

What was measured:
P. Aeruginosa PAO1 [1] = assay: Intrinsic MIC assay (broth microdilution), P. aeruginosa PAO1; format: cell-based, Pseudomonas aeruginosa; conditions: for MIC: Pseudomonas aeruginosa, read-out: Intrinsic MIC; for Intrinsic MIC, second value printed in parentheses: not explained
Method: (§1) MIC assays were conducted in accordance with Clinical and Laboratory Standards Institute (CLSI) guidelines for broth microdilution.
(§2) The intrinsic MIC of the experimental EPIs was tested with the method described. The 2-fold serial dilution begins with 100 μg/mL of tested compound in the first column of the 96-well plates. The following Gram-negative bacterial strains were included in these assays: • Escherichia coli ATCC 25922 • Klebsiella pneumoniae ATCC 13883 and ATCC 10031 • Pseudomonas aeruginosa ATCC 27853. • Pseudomonas aeruginosa PAO1 • Acinetobacter baumannii ATCC 19606

P. Aeruginosa PAO1 [2] = assay: MIC assay in the presence of a bacterial efflux pump inhibitor (EPI), P. aeruginosa PAO1; format: cell-based, Pseudomonas aeruginosa; conditions: in the presence of 12.5 μg/ml of N-(((2S,4R)-4-(aminomethyl)pyrrolidin-2-yl)methyl)-6-(4-fluorophenyl)-1H-indole-2-carboxamide
Method: The ability of a compound to produce an antibiotic effect can be determined using a method as described in Example 11. Data for representative compounds used in combination with the bacterial efflux pump inhibitor (EPI) N-(((2S,4R)-4-(aminomethyl)pyrrolidin-2-yl)methyl)-6-(4-fluorophenyl)-1H-indole-2-carboxamide is shown in Table 1.
as §1
The EPI assay for the purposes of these studies represents a MIC assay in which the MIC of the antibiotic against the bacteria is tested in the presence of an experimental efflux pump inhibitor (EPI). The highest concentration of the EPI present in the assay typically is ½ of the intrinsic MIC of the compound. […] Using serial dilutions of the EPI, its enhancement of antibiotic activity was then evaluated. The relative EPI activity was decided by comparing the MIC of the antibiotic in the presence of the EPI compound with the intrinsic MIC of the antibiotic alone. For comparative purposes, we generally used EPIs at concentration of 12.5 and 6.25 μg/ml against varying concentration of our test antibiotic.

E. coli ATCC 25922 = assay: Intrinsic MIC assay (broth microdilution), E. coli; format: cell-based, Escherichia coli; conditions: for MIC: Escherichia coli
Method: as §1, §2

K. pneumoniae ATCC 10031 = assay: Intrinsic MIC assay (broth microdilution), K. pneumoniae; format: cell-based, Klebsiella pneumoniae; conditions: for MIC: Klebsiella pneumoniae
Method: as §1, §2

A. baumannii ATCC 19606 = assay: Intrinsic MIC assay (broth microdilution), A. baumannii; format: cell-based, Acinetobacter baumannii; conditions: for MIC: Acinetobacter baumannii
Method: as §1, §2

[3] = P. Aeruginosa PAO1, without EPI
[4] = ATCC25922, E. coli ATCC 25922, read-out: Intrinsic MIC
[5] = ATCC10031, K. pneumoniae ATCC 10031, read-out: Intrinsic MIC
[6] = ATCC19606, A. baumannii ATCC 19606, read-out: Intrinsic MIC
[7] = 18 h, P. Aeruginosa PAO1, without EPI

Compound	Intrinsic MIC (P. Aeruginosa PAO1 [1]; [3])	MIC in the Presence of EPI* (P. Aeruginosa PAO1 [2])	MIC (E. coli ATCC 25922; [4])	MIC (K. pneumoniae ATCC 10031; [5])	MIC (A. baumannii ATCC 19606; [6])	MIC (P. Aeruginosa PAO1 [1]; [7])	Intrinsic MIC, second value printed in parentheses (P. Aeruginosa PAO1 [1]; [3])	Intrinsic MIC (E. coli ATCC 25922; E. coli ATCC 25922)	Intrinsic MIC (K. pneumoniae ATCC 10031; K. pneumoniae ATCC 10031)	Intrinsic MIC (A. baumannii ATCC 19606; A. baumannii ATCC 19606)	MIC (P. Aeruginosa PAO1 [1]; PAO1, 18 h)	MIC (E. coli ATCC 25922; ATCC25922, read-out: Intrinsic MIC)	MIC (K. pneumoniae ATCC 10031; ATCC10031, read-out: Intrinsic MIC)	MIC (A. baumannii ATCC 19606; ATCC19606, read-out: Intrinsic MIC)
1-(5-Bromo-1H-indol-2-yl)ethane-1,2-diamine [Example 6]	256 µg/mL	128 µg/mL	–	–	–	–	–	128 µg/mL	64 µg/mL	128 µg/mL	–	–	–	–
CCCCC(N)c1cc2cc(Br)ccc2[nH]1 (stereo not drawn) [Example 2, 1-(5-Bromo-1H-indol-2-yl)pentan-1-aminium chloride]	–	64 µg/mL	–	–	–	–	–	–	–	–	> 256 µg/mL	16 µg/mL	16 µg/mL	32 µg/mL
CC(N)c1cc2cc(Br)ccc2n1C (stereo not drawn) [Example 5, 1-(5-Bromo-1-methyl-1H-indol-2-yl)ethan-1-amine]	–	64 µg/mL	128 µg/mL (≈ 506 µM)	64 µg/mL (≈ 253 µM)	128 µg/mL (≈ 506 µM)	> 256 µg/mL	–	–	–	–	–	–	–	–
COc1ccc2[nH]c(C(C)N)cc2c1 (stereo not drawn) [Example 8, 1-(5-Methoxy-1H-indol-2-yl)ethan-1-amine]	–	256 µg/mL	> 256 µg/mL	> 256 µg/mL	256 µg/mL (≈ 1350 µM)	> 256 µg/mL	–	–	–	–	–	–	–	–
NCc1cc2ccc(Br)cc2[nH]1 [Example 13, (6-Bromo-1H-indol-2-yl)methanamine]	–	16 µg/mL	256 µg/mL (≈ 1140 µM)	256 µg/mL (≈ 1140 µM)	128 µg/mL (≈ 569 µM)	64 µg/mL (≈ 284 µM)	–	–	–	–	–	–	–	–
CC(N)c1cc2c(Cl)cc(Cl)cc2[nH]1 (stereo not drawn) [Example 15, 1-(4,6-Dichloro-1H-indol-2-yl)ethan-1-amine]	256 µg/mL	16 µg/mL	128 µg/mL (≈ 559 µM)	64 µg/mL (≈ 279 µM)	32 µg/mL (≈ 140 µM)	–	–	–	–	–	–	–	–	–
CC(NCCCN)c1cc2cc(Br)ccc2[nH]1 (stereo not drawn) [Example 24, N^1-(1-(5-Bromo-1H-indol-2-yl)ethyl)propane-1,3-diamine]	–	–	–	64 µg/mL (≈ 216 µM)	256 µg/mL (≈ 864 µM)	64 µg/mL (≈ 216 µM)	128 µg/mL	–	–	–	–	–	–	–
CC(NCCCNC(=O)c1ccc(Cl)s1)c1cc2cc(Br)ccc2[nH]1 (stereo not drawn) [Example 27, N-(3-((1-(5-Bromo-1H-indol-2-yl)ethyl)amino)propyl)-5-chlorothiophene-2-carboxamide]	–	64 µg/mL	–	8 µg/mL (≈ 18.1 µM)	–	32 µg/mL (≈ 72.6 µM)	> 256 µg/mL	–	–	–	–	–	–	–
NCCCNC1CCCCc2c1[nH]c1ccc(Br)cc21 (stereo not drawn) [Example 28, N^1-(2-Bromo-5,6,7,8,9,10-hexahydrocyclohepta[b]indol-6-yl)propane-1,3-diamine]	–	–	16 µg/mL (≈ 47.6 µM)	8 µg/mL (≈ 23.8 µM)	32 µg/mL (≈ 95.2 µM)	64 µg/mL (≈ 190 µM)	32 µg/mL	–	–	–	–	–	–	–

Now from value to compound, other results behind:

Intrinsic MIC (P. Aeruginosa PAO1 [1]; [3])	MIC in the Presence of EPI* (P. Aeruginosa PAO1 [2])	MIC (E. coli ATCC 25922; [4])	MIC (K. pneumoniae ATCC 10031; [5])	MIC (A. baumannii ATCC 19606; [6])	MIC (P. Aeruginosa PAO1 [1]; [7])	Intrinsic MIC, second value printed in parentheses (P. Aeruginosa PAO1 [1]; [3])	Compound	Intrinsic MIC (E. coli ATCC 25922; E. coli ATCC 25922)	Intrinsic MIC (K. pneumoniae ATCC 10031; K. pneumoniae ATCC 10031)	Intrinsic MIC (A. baumannii ATCC 19606; A. baumannii ATCC 19606)	MIC (P. Aeruginosa PAO1 [1]; PAO1, 18 h)	MIC (E. coli ATCC 25922; ATCC25922, read-out: Intrinsic MIC)	MIC (K. pneumoniae ATCC 10031; ATCC10031, read-out: Intrinsic MIC)	MIC (A. baumannii ATCC 19606; ATCC19606, read-out: Intrinsic MIC)
128 µg/mL	8 µg/mL	128 µg/mL (≈ 535 µM)	64 µg/mL (≈ 268 µM)	128 µg/mL (≈ 535 µM)	–	–	CC(N)c1cc2cc(Br)ccc2[nH]1 (stereo not drawn) [Example 1, 1-(5-Bromo-1H-indol-2-yl)ethan-1-amine]	–	–	–	–	–	–	–
–	64 µg/mL	256 µg/mL (≈ 1010 µM)	128 µg/mL (≈ 506 µM)	64 µg/mL (≈ 253 µM)	> 256 µg/mL	–	CNC(C)c1cc2cc(Br)ccc2[nH]1 (stereo not drawn) [Example 3, 1-(5-Bromo-1H-indol-2-yl)-N-methylethan-1-amine]	–	–	–	–	–	–	–
–	128 µg/mL	> 256 µg/mL	> 256 µg/mL	> 256 µg/mL	> 256 µg/mL	–	CC(N)c1cc2ccccc2[nH]1 (stereo not drawn) [Example 4, 1-(1H-Indol-2-yl)ethan-1-amine]	–	–	–	–	–	–	–
256 µg/mL	16 µg/mL	> 256 µg/mL	> 256 µg/mL	> 256 µg/mL	–	–	CC(N)c1cc2cc(F)ccc2[nH]1 (stereo not drawn) [Example 7, 1-(5-Fluoro-1H-indol-2-yl)ethan-1-amine]	–	–	–	–	–	–	–
–	16 µg/mL	128 µg/mL (≈ 561 µM)	64 µg/mL (≈ 280 µM)	64 µg/mL (≈ 280 µM)	> 256 µg/mL	–	CC(N)c1cc2cc(C(F)(F)F)ccc2[nH]1 (stereo not drawn) [Example 9, 1-(5-(Trifluoromethyl)-1H-indol-2-yl)ethan-1-amine]	–	–	–	–	–	–	–
–	32 µg/mL	256 µg/mL (≈ 1070 µM)	128 µg/mL (≈ 535 µM)	128 µg/mL (≈ 535 µM)	> 256 µg/mL	–	CC(N)c1cc2ccc(Br)cc2[nH]1 (stereo not drawn) [Example 10, 1-(6-Bromo-1H-indol-2-yl)ethan-1-amine]	–	–	–	–	–	–	–
–	64 µg/mL	128 µg/mL (≈ 524 µM)	64 µg/mL (≈ 262 µM)	64 µg/mL (≈ 262 µM)	> 256 µg/mL	–	CC(N)c1cc2cc(OC(F)(F)F)ccc2[nH]1 (stereo not drawn) [Example 11, 1-(5-(Trifluoromethoxy)-1H-indol-2-yl)ethan-1-amine]	–	–	–	–	–	–	–
–	256 µg/mL	> 256 µg/mL	> 256 µg/mL	> 256 µg/mL	> 256 µg/mL	–	CC(c1cc2ccccc2[nH]1)N(C)C (stereo not drawn) [Example 12, 1-(1H-Indol-2-yl)-N,N-dimethylethan-1-amine]	–	–	–	–	–	–	–
–	8 µg/mL	128 µg/mL (≈ 569 µM)	64 µg/mL (≈ 284 µM)	64 µg/mL (≈ 284 µM)	128 µg/mL (≈ 569 µM)	–	NCc1cc2cc(Br)ccc2[nH]1 [Example 14, (5-Bromo-1H-indol-2-yl)methanamine]	–	–	–	–	–	–	–
–	64 µg/mL	256 µg/mL (≈ 958 µM)	256 µg/mL (≈ 958 µM)	128 µg/mL (≈ 479 µM)	256 µg/mL (≈ 958 µM)	–	CC(c1cc2cc(Br)ccc2[nH]1)N(C)C (stereo not drawn) [Example 16, 1-(5-Bromo-1H-indol-2-yl)-N,N-dimethylethan-1-amine]	–	–	–	–	–	–	–
256 µg/mL	8 µg/mL	256 µg/mL (≈ 1300 µM)	128 µg/mL (≈ 652 µM)	128 µg/mL (≈ 652 µM)	–	–	CC(N)c1cc2cc(F)c(F)cc2[nH]1 (stereo not drawn) [Example 17, 1-(5,6-Difluoro-1H-indol-2-yl)ethan-1-amine]	–	–	–	–	–	–	–
–	2 µg/mL	32 µg/mL (≈ 127 µM)	32 µg/mL (≈ 127 µM)	64 µg/mL (≈ 255 µM)	128 µg/mL (≈ 510 µM)	–	NC1CCc2c1[nH]c1ccc(Br)cc21 (stereo not drawn) [Example 18, 7-Bromo-1,2,3,4-tetrahydrocyclopenta[b]indol-3-amine]	–	–	–	–	–	–	–
–	–	64 µg/mL (≈ 208 µM)	32 µg/mL (≈ 104 µM)	256 µg/mL (≈ 831 µM)	64 µg/mL (≈ 208 µM)	128 µg/mL	NCCCNC1CCc2c1[nH]c1ccc(Br)cc21 (stereo not drawn) [Example 29, N^1-(7-Bromo-1,2,3,4-tetrahydrocyclopenta[b]indol-3-yl)propane-1,3-diamine]	–	–	–	–	–	–	–
